The results in this text go back to publication PMC9698716, “From Serendipity to Rational Identification of the 5,6,7,8-Tetrahydrobenzo[4,5]thieno[2,3-d]pyrimidin-4(3H)-one Core as a New Chemotype of AKT1 Inhibitors for Acute Myeloid Leukemia” (Pharmaceutics, 2022).

The test system of data set [1] is OCI-AML2. As to the kind of experiment: Apoptosis by flow cytometry (Annexin V/7AAD). The data set is classed as cell-based, human. The settings on record: OCI-AML2, 5 µM, 48 h. How it is done: (§1) The cell apoptosis was assessed using Annexin V APC- or FITC-conjugated antibodies and counterstained with Propidium Iodide (PI) or 7AAD for the detection of necrotic cells (Becton Dickinson, Franklin Lakes, NJ, USA), according to the manufacturer’s protocol. The data acquisition and analysis were done with a FACS Canto II flow cytometer and data were acquired and analyzed using Diva software (Becton Dickinson, Franklin Lakes, NJ, USA).

Data set [2] relates to IMS-M2. The data set can be described thus: Apoptosis by flow cytometry (Annexin V/7AAD). It counts as cell-based, human. The following applies: IMS-M2, 5 µM, 48 h. The procedure:
as §1

In data set [3] the test system is OCI-AML3. As to the kind of experiment: Apoptosis by flow cytometry (Annexin V/7AAD). It counts as cell-based, human. The following applies: OCI-AML3, 5 µM, 48 h. The procedure: as §1
For orientation: In flow cytometry, cells or beads pass a laser one at a time.

A short description of data set [4]: UV-VIS titration assay with increasing MgCl2. It counts as physicochemical. The settings on record: 100 µM compound, up to 10 mM MgCl2. How it is done:
The potential ability of T126 to chelate Mg^2+ ions was evaluated by spectrophotometric methods using a T70+ UV-Vis Spectrometer (PG Instruments, Leicestershire, UK) and a quartz cuvette with a 1 cm optical path. MgCl2. 5H2O 1M solution was prepared from powder (VWR International, Milan, Italy). The compound T126 was dissolved in DMSO to a final concentration of 10 mM and diluted with a milliQ water/DMSO mixture to a final concentration of 100 µM (4% DMSO). The obtained solution was placed in a cuvette and the UV-Vis spectra was recorded between 200 and 500 nm using water milliQ (with 4% DMSO) as reference. Thereafter, small volumes of MgCl2 aqueous solution were added both in the sample and in the reference cuvettes to obtain a series of solutions containing increasing concentrations of MgCl2 (1.25, 2.5, 5 and 10 mM), carefully pipetted for mixing, and the UV-Vis spectra were repeated. Each experiment was performed in triplicate.

Data set [5] concerns OCI-AML2. The data set can be described thus: CellTiter Blue cell viability assay. The settings on record: Homo sapiens, OCI-AML2, 48 h; read-out: cellular IC50. It counts as cell-based, human. The text has this:
(§2) The human AML cell lines, OCI-AML3 (carrying the NPM1 gene mutation A and the DNMT3A^R882C mutation), IMS-M2 (carrying the NPM1 gene mutation A), OCI-AML2 (with the wild-type NPM1 and DNMT3A^R635W mutation), and SKM-1 and MOLM-13 (with the wild-type NPM1) were previously reported. The cell lines were purchased from the Deutsche Sammelung von Mikroorganismen und Zellkulturen (DSMZ) (Braunschweig, Germany) cell bank and maintained according to the vendors’ instructions. Briefly, cultured cells were split every 3 days and maintained in an exponential growth phase. The cell lines were tested for mycoplasma using the Universal Mycoplasma Detection Kit (ATCC). The OCI-AML3 were grown in α-MEM supplemented with 20% fetal bovine serum, 100 U/mL penicillin, and 100 μg/mL streptomycin (P/S), and all other cell lines were cultured in RPMI and supplemented with a 10–20% fetal bovine serum and 100 U/mL penicillin and 100 μg/mL streptomycin. The cells were kept at 37 °C in a 5% CO2 incubator. Prior to screening, the appropriate cell concentration for all cell lines was determined. For the cell lines’ treatments, cells were maintained as follows: OCI-AML3 at 0.25 × 10^6/mL, OCI-AML2 and IMS-M2 at 0.35 × 10^6/mL, and SKM-1 and MOLM-13 at 0.5 × 10^6/mL. The compounds were re-suspended at 10 mM stock in DMSO. Further dilutions were performed in phosphate-buffer-saline (PBS) for pharmacological experiments. The cells were exposed to compounds at different concentrations for the indicated time points and sampled as described below. Briefly, the cells (4 × 10^5/mL) were seeded in 384-well plate and treated for 48 h with various concentrations (0.001 μM to 100 μM) of either one of the compounds, T101, T126, and T159, or NSC348884, as a positive control. Each plate included DMSO at 0.1% as a negative control. The metabolic cell activity was measured by using the CellTiter Blue proliferation agent (Roche) as described in the manufacturer’s procedure. Briefly, CellTiter Blue solution (Resazaurin) was added to each well and the plates were incubated at 37 °C with 5% CO2 for 4 h. During the incubation time, the resazurin is reduced to fluorescent resorufin in metabolically and proliferating living cells. The fluorescence intensity was measured using the automated Tecan plate reader (Tecan Group Ltd., Männedorf, Switzerland) at an excitation/emission wavelength of 531/572 nm. The fluorescence readouts were reported as relative fluorescence units (RFU) and read on a luminescence plate reader (Infinite 200 Pro, Tecan, CA, USA). The dose response curves ([…] (IC50)) were obtained by non-linear regression analysis using the GraphPad Prism 5.0 program. The concentration is shown as a logarithmic function. All the experiments were performed at least in triplicate, with technical repetition. The results are expressed as mean ± standard error of the mean (SEM). For the Colony Forming Unit (CFU) assay, 10 × 10^6 CD34+ human hematopoietic progenitors were received from unique healthy donors, upon signed informed consent, and were cultured in SFEM II (Serum-free medium) and P/S at a density of 1 × 10^6/mL with cytokines that are important for cell division and self-renewal: fms-like tyrosine kinase 3 (FLT3)-ligand, FLT3L (100 ng/mL), Stem Cell Factor, SCF (100 ng/mL) and Trombopoietin, and TPO (50 ng/mL) for 48 h before plating them on a Methocult medium.
Background: Alamar Blue is a resazurin reagent that responds to reducing activity.

For another data set, the system named is SKM-1. The data set can be described thus: CellTiter Blue cell viability assay. The following applies: Homo sapiens, SKM-1, 48 h; read-out: cellular IC50. It counts as cell-based, human.
Source text: as §2

For a further data set, the system named is MOLM-13. The data set can be described thus: CellTiter Blue cell viability assay. It counts as cell-based, human. The settings on record: Homo sapiens, MOLM-13, 48 h; read-out: cellular IC50.
Source text: as §2

For data set [6], the system named is IMS-M2. The data set can be described thus: CellTiter Blue cell viability assay. It counts as cell-based, human. The settings on record: Homo sapiens, IMS-M2, 48 h; read-out: cellular IC50.
Source text: as §2

Data set [7] deals with OCI-AML3. As to the kind of experiment: CellTiter Blue cell viability assay. The data set is classed as cell-based, human. The settings on record: Homo sapiens, OCI-AML-3; OCI-AML3, 48 h; read-out: cellular IC50.
Source text: as §2

Data set [8] concerns OCI-AML2. As to the kind of experiment: Cell growth, viable cell count by trypan blue exclusion. It counts as cell-based, human. The following applies: OCI-AML2, 5 µM, at 48 and 72 h.

With `O=c1[nH]c(-c2ccc(O)c(O)c2)nc2sc3c(c12)CCCC3` [T126], the induction of apoptosis result in the data set on OCI-AML2 [1], with IMS-M2 [2] and in the data set on OCI-AML3 [3] was “significant level of apoptosis” in each case. In data set [4], the “ability to chelate Mg^2+ ions” value is on record as “inability of T126 to chelate Mg^2+ ions”. Moreover, the IC50 is 2.4 µM with OCI-AML2 [5]; 6.9 µM in the data set on SKM-1; 9.2 µM in the data set on MOLM-13; 4.3 µM in the data set with IMS-M2 [6]; 4.2 µM in the data set on OCI-AML3 [7]. For the same molecule, the cell growth inhibition result in the data set on OCI-AML2 [8] is on record as “significant cell growth inhibition”.

The term IC50 denotes the concentration that inhibits the measured activity by half.
